Source: article PMC10951066, “The self-reactive FVIII T cell repertoire in healthy individuals relies on a short set of epitopes and public clonotypes” (Frontiers in Immunology, 2024)

Assays:
[1] = test system: CD4 T cells from healthy donors; assay: Large-scale CD4 T cell epitope mapping by IFN-γ ELISPOT (16 donors); format: cell-based, human; conditions: for Donor coverage ( %): of 16 donors; for responding donors: of 16 healthy donors, individual peptide 10 µg/ml; for response intensity ( %): percentage of 872 FVIII-specific T cell lines
Text: PBMCs were purified from the whole blood of anonymous healthy donors, who gave informed consent (Etablissement Français du Sang, Rungis, France), using Ficoll-Paque®. Monocyte-derived dendritic cells (DCs) were produced from cells isolated using Percoll gradient by 5 days of culture in AIM-V medium (Invitrogen, Villebon-sur-Yvette, France) supplemented with 1,000 U/ml recombinant human (rh) IL-4 and rhGM-CSF (both from R&D Systems, Lille, France). Mature DCs were produced by two supplementary days of culture in the presence of LPS (1 µg/ml) and R848 (10µg/ml). CD4 T cells were isolated from autologous PBMCs by positive selection using magnetic labeling with anti-CD4 mAbs conjugated to magnetic microbeads followed by magnetic cell sorting, as recommended by the manufacturer (Miltenyi Biotec, Bergisch Gladbach, Germany). Immature DCs were loaded overnight at 37 °C with either 0.2 µM of rFVIII, 0.2 µM of ovalbumin, or 0.25 µM of KLH in 96-well U-bottom plates, while mature DCs were used for FVIII peptides (10 ug/ml). CD4 T cell lines were generated in vitro in IMDM (Invitrogen) supplemented with 10% human serum, 0.24 mM glutamine, 0.55 mM asparagine, 1.5 mM arginine (all amino acids from Sigma-Aldrich), 50 U/mL penicillin/50 μg/mL of streptomycin (Invitrogen), 20 IU/mL human IL-2, and 17 IU/ml human IL-7 (premium-grade; Miltenyi Biotec) by three once-per-week rounds of stimulation of CD4 T cells (200,000 per well) with autologous DCs (20,000 per well). 10,000 lymphocytes were collected at day 19 from each T cell line (expanded T cells contained in one well) and their specificity was assessed by using IFN-g ELISPOT.
The T cell lines and APCs were plated at equal number for both stimulated and unstimulated control conditions. […] The spot number was determined by using the ELISPOT Reader System (Autoimmun Diagnostika, Ebinger, Germany). HLA restriction was assessed using monoclonal antibodies (10 μg/ml) specific to HLA-DP (B7/21), HLA-DQ (SPVL3), or HLA-DR (L243).
Based on the T cell epitope prediction software NetMHCpan4.0 ([23]), we selected 63 20-mer peptides that are predicted for their ability to bind promiscuously, with a percentile score below 10%, at least four HLA class II molecules from a selection of 15 preponderant HLA-DR alleles in our panel (as shown in ST1). […] A total of 16 healthy donors with unrelated HLA typing (ST2) were used as sources of T cells to identify FVIII-specific CD4 T cell epitopes. Specific T cell lines were generated by in vitro T cell culture using FVIII and KLH. The peptide specificity of the T cell lines raised against FVIII was assessed by two independent IFN-γ ELISPOT using peptide pools and individual peptides. […] Furthermore, four independent healthy donors were used as sources of T cells to characterize the HLA restriction and to assess the reactivity of T cell lines generated with the 18 peptides toward rFVIII. T cell lines were amplified in vitro for 28 days through stimulation with the pool of 18 peptides and then tested through IFN-γ ELISPOT.

[2] = molecular target: HLA-DRB1*1101 (Homo sapiens, UniProt P01903+P01911, A100R/A169T/A87E/I96F/K41T/L162R/M171V/P40S/Q125H/Q178H/Q39Y/Q99D/R42S/S66Y/T262R/V115G/W38E); assay: Peptide-MHCII competition binding assay; conditions: competition ELISA, pH 5.9, peptide 90.000nM – 0.9nM, HLA-DRB1 30 nM, biotinylated peptide 15nM, duplicate wells; ratios below 10 = good binding; reference peptide […]
Procedure: (§1) Quantitative peptide-MHCII competition binding assays were carried out to determine binding avidities of the 18 20-mer FVIII peptides to 6 HLA-DRB1. Data are presented as ratio between reference peptide IC50/FVIII-peptide IC50 tested. Briefly, non-biotinylated FVIII peptides have been diluted at a concentration of 20 mM in DMSO. 10-µl aliquots of serially diluted (90.000nM – 0.9nM in n-Octyl b-D-Glucopyranoside, 2.5 mg/ml in 1x phosphate buffer, pH 5.9) of non-biotinylated FVIII peptides, were added to duplicate wells of 96-well polypropylene plates. Serially diluted non-FVIII reference peptides known to bind to the specific HLA-DRB1 were added to separate wells as positive controls. Next, the biotinylated peptide at a concentration of 2mM was use to prepare 1000-fold pre-dilution to reach a final concentration of 15nM. The HLA-DRB1 proteins were diluted to 30 nM in n-Octyl β-D-Glucopyranoside, 2.5 mg/ml in 1x phosphate buffer, pH 5.9. […] SA-HRP (diluted 5000x in 1xPBS 0.1% Tween20) was added to each well. The plates were covered and incubated at room temperature for 60 min […] and washed. TMB (100 μl/well) was then added, and the plates were incubated at room temperature for 15-30 min. ELISA stopping solution (0.5M H2SO4) was added and then read on a FLUOstar OPTIMA fluorometer. Sigmoidal binding curves were simulated and IC50 values calculated for the FVIII peptides, based on their competition with the reference peptides for each HLA-DRB1. Data were reported as the ratio between the values of the tested peptide and of the reference peptide. Ratios below 10 correspond to good biding affinity.

[3] = molecular target: HLA-DRB1*0301 (Homo sapiens, UniProt P01903+P01911, A100K/A102G/A103R/A169T/F55Y/I96L/K41T/L162R/M171V/P40S/Q125H/Q178H/Q39Y/R42S/S66N/T106N/T262R/W38E/Y61H); assay: Peptide-MHCII competition binding assay; conditions: competition ELISA, pH 5.9, peptide 90.000nM – 0.9nM, HLA-DRB1 30 nM, biotinylated peptide 15nM, duplicate wells; ratios below 10 = good binding; reference peptide SFLLTDLINRRTPRVDGQ
Procedure: as §1

[4] = molecular target: HLA-DRB1*0701 (Homo sapiens, UniProt P01903+P01911, A100R/A102G/A103Q/D57E/D86V/E43K/F76Y/K127E/L162R/M171V/P40G/Q125H/Q99D/R33Q/R42Y/R54Q/S133A/S66F/T210M/V115G/Y107V/Y59L/Y89S); assay: Peptide-MHCII competition binding assay; conditions: competition ELISA, pH 5.9, peptide 90.000nM – 0.9nM, HLA-DRB1 30 nM, biotinylated peptide 15nM, duplicate wells; ratios below 10 = good binding; reference peptide PVDLHAFLSQAVFS
Procedure: as §1

[5] = molecular target: HLA-DRB1*1501 (Homo sapiens, UniProt P01903+P01911); assay: Peptide-MHCII competition binding assay; conditions: competition ELISA, pH 5.9, peptide 90.000nM – 0.9nM, HLA-DRB1 30 nM, biotinylated peptide 15nM, duplicate wells; ratios below 10 = good binding; reference peptide ENPVVHFFKNIVTPR
Procedure: as §1

[6] = molecular target: HLA-DRB1*0101 (Homo sapiens, UniProt P01903+P01911, A100R/D57E/F55L/F60I/F76Y/I96L/L162R/M171V/P40L/Q125E/R42F/V115G/Y59C); assay: Peptide-MHCII competition binding assay; conditions: competition ELISA, pH 5.9, peptide 90.000nM – 0.9nM, HLA-DRB1 30 nM, biotinylated peptide 15nM, duplicate wells; ratios below 10 = good binding; reference peptide […]
Procedure: as §1

[7] = molecular target: HLA-DRB1*0401 (Homo sapiens, UniProt P01903+P01911, A100K/A169T/F76Y/I96L/K127E/L162R/M171V/N62H/P40V/Q125Y/R42H/S133A/S149N/S66Y/V115G/V209L/W38E); assay: Peptide-MHCII competition binding assay; conditions: competition ELISA, pH 5.9, peptide 90.000nM – 0.9nM, HLA-DRB1 30 nM, biotinylated peptide 15nM, duplicate wells; ratios below 10 = good binding; reference peptide […]
Procedure: as §1

Row | Sequence | Donor coverage ( %) [1] | responding donors [1] | response intensity ( %) [1] | Ratio IC50 DRB1*1101 [2] | Ratio IC50 DRB1*0301 [3] | Ratio IC50 DRB1*0701 [4] | Ratio IC50 DRB1*1501 [5] | Ratio IC50 DRB1*0101 [6] | Ratio IC50 DRB1*0401 [7] | nb positive T cell lines ([1]; across all 16 donors) | cumulative donor coverage (%) ([1]; cumulative over peptides ranked by donor coverage)
1 | TQGVKSLLTSMYVKEFLISS [P2264-2283, 20-mer FVIII peptide, C2 domain] | 50% | 8 | 1,72% | 0.05 | 17 | 0.05 | 480 | 6242 | 5.5 | – | –
2 | GHTFLVRNHRQASLEISPIT [P292-311, 20-mer FVIII peptide, A1 domain] | 75% | 12 | 2,98% | 0.05 | 72 | 1 | – | 34 | 22.5 | 26 | 81%
